The source made the active and inactive calls. The rule behind the calls is not given here.
What was measured:
[1] = Suppression of glycoprotein IIb/IIIa activation in thrombin-stimulated human platelets by measuring activated GPIIb/IIIa at 0.10 mM measured after 3 hrs by PAC-1-FITC dye based flow cytometry (reference value: 90.1%); format: functional; conditions: Platelet, at 0.1 mM
[2] = Inhibition of thrombin-induced platelet aggregation in mouse platelet isolated from C57BL/6J mouse treated at 200 mg/kg, ig twice a day for 7 days by lumi-aggregometer; format: functional; conditions: po, 168 h, time 7 day
[3] = Toxicity in calcein-labelled platelet-mediated ferric chloride-induced arterial injury thrombosis po dosed C57BL/6J mouse model assessed as change in coagulation factor VII to XII treated twice a day measured upto 7 days; format: organism-based; conditions: in vivo, 168 h, time <=7 day
[4] = Toxicity in calcein-labelled platelet-mediated ferric chloride-induced arterial injury thrombosis po dosed C57BL/6J mouse model assessed as change in thrombin time treated twice a day measured upto 7 days; format: organism-based; conditions: in vivo, 168 h, time <=7 day
Platelet [5] = experiment: Cytotoxicity against human platelet assessed as extracellular LDH levels changes at 1 mM incubated for 1 hrs; format: cell-based; conditions: 1000 µM
[6] = Suppression of glycoprotein IIb/IIIa activation in thrombin-stimulated human platelets by measuring activated GPIIb/IIIa at 0.01 mM measured after 3 hrs by PAC-1-FITC dye based flow cytometry (reference value: 90.1%); format: functional; conditions: Platelet
[7] = Inhibition of thrombin-stimulated human platelet aggregation by measuring aggregation at 0.50 mM measured after 3 hrs by scanning electron microscopy (Rvb= 87.2 +/- 4.0%); format: functional; parameters: scale not given: the % may be the effect or the level left; conditions: dose 0.5 mM
[8] = Suppression of glycoprotein IIb/IIIa activation in thrombin-stimulated human platelets by measuring activated GPIIb/IIIa at 0.50 mM measured after 3 hrs by PAC-1-FITC dye based flow cytometry (reference value: 90.1%); format: functional; conditions: Platelet, at 0.5 mM
Mus musculus [9] = experiment: Antithrombotic activity in calcein-labelled platelet-mediated ferric chloride-induced arterial injury thrombosis C57BL/6J mouse model assessed as average time to occlusive thrombosis at 100 mg/kg, po administrated twice a day measured upto 7 days (reference value: 7.9 +/- 0.7 min); format: functional; conditions: time day <=7
[10] = Inhibition of thrombin-stimulated human platelet aggregation by measuring aggregation at 0.50 mM measured after 3 hrs by scanning electron microscopy; format: functional; parameters: scale not given: the % may be the effect or the level left; conditions: dose 0.5 mM
[11] = Suppression of glycoprotein IIb/IIIa activation in thrombin-stimulated human platelets by measuring activated GPIIb/IIIa at 1 mM measured after 3 hrs by PAC-1-FITC dye based flow cytometry (reference value: 90.1%); format: functional; conditions: Platelet
[12] = Inhibition of thrombin-stimulated human platelet aggregation by measuring aggregation at 0.01 mM measured after 3 hrs by scanning electron microscopy (Rvb= 87.2 +/- 4.0%); format: functional; parameters: scale not given: the % may be the effect or the level left
Platelet [13] = experiment: Cytotoxicity against human platelet assessed as extracellular LDH levels changes at 1 mM incubated for 6 hrs; format: cell-based; conditions: 1000 µM
[14] = Suppression of P-selectin expression in thrombin-stimulated human platelets by measuring CD62P positive platelets at 0.50 mM after 3 hrs by flow cytometry analysis (reference value: 78.2%); format: functional; conditions: Platelet, at 0.5 mM
[15] = Toxicity in C57BL/6J mouse assessed as change in potassium level at 200 mg/kg twice daily for 60 days relative to control; format: organism-based; conditions: in vivo, 1440 h, time 60 day
[16] = Toxicity in C57BL/6J mouse assessed as change in chloride level at 200 mg/kg twice daily for 60 days relative to control; format: organism-based; conditions: in vivo, 1440 h, time 60 day
Mus musculus [17] = experiment: (§1) Antithrombotic activity in transient focal cerebral ischemic mouse model occlusion induced 60 mins of the right middle cerebral artery followed by reperfussion 23 hrs assessed as activated platelets with red blood cells and loose textured stroke thrombi at 200 mg/kg, po twice daily for 7 days by TTC staining based immuno histochemistry analysis; format: functional, organism-based; conditions: time 7.0 day
[18] = Apparent clearance during terminal phase in Sprague-Dawley rat at 200 mg/kg, po measured by HPLC-MS/MS analysis; format: ADME, organism-based; conditions: in vivo
Mus musculus [19] = experiment: as §1, with “reduction of neurological deficits” for “activated platelets with red blood cells and loose textured stroke thrombi”; format: functional, organism-based; conditions: time 7.0 day
[20] = Toxicity against C57BL/6J mouse assessed as effect on blood lactic acid at 200 mg/kg twice a day measured after 60 days; format: organism-based; conditions: in vivo, 1440 h, time 60 day
[21] = Half life in Sprague-Dawley rat at 200 mg/kg, po measured by HPLC-MS/MS analysis; format: ADME, organism-based; conditions: in vivo
Mus musculus [22] = experiment: Antithrombotic activity in calcein-labelled platelet-mediated ferric chloride-induced arterial injury thrombosis C57BL/6J mouse model assessed as thrombus weight at 300 mg/kg, po administrated twice a day measured upto 7 days (reference value: 3.3 +/- 0.3 mg); format: functional; conditions: time day <=7
[23] = AUC (0 to infinity) in Sprague-Dawley rat at 200 mg/kg, po measured by HPLC-MS/MS analysis; format: ADME, organism-based; parameters: time infinity, route oral, dose 200 mg/kg; conditions: in vivo
Mus musculus [24] = experiment: Antithrombotic activity in calcein-labelled platelet-mediated ferric chloride-induced arterial injury thrombosis C57BL/6J mouse model assessed as thrombus length at 50 mg/kg, po administrated twice a day measured upto 7 days (reference value: 4.4 +/- 0.4 mm); format: functional; conditions: time day <=7
[25] = Toxicity in C57BL/6J mouse assessed as change in platelet ratio at 200 mg/kg twice daily for 60 days relative to control; format: organism-based; conditions: in vivo, 1440 h, time 60 day
[26] = Toxicity in C57BL/6J mouse assessed as change in blood urea nitrogen level at 200 mg/kg twice daily for 60 days relative to control; format: organism-based; conditions: in vivo, 1440 h, time 60 day
[27] = Inhibition of thrombin-stimulated human platelet aggregation by measuring aggregation at 0.05 mM measured after 3 hrs by scanning electron microscopy (Rvb= 87.2 +/- 4.0%); format: functional; parameters: scale not given: the % may be the effect or the level left
[28] = Toxicity in calcein-labelled platelet-mediated ferric chloride-induced arterial injury thrombosis po dosed C57BL/6J mouse model assessed as change in coagulation factor II treated twice a day measured upto 7 days; format: organism-based; conditions: in vivo, 50 mg/kg, 168 h, time <=7 day
[29] = Toxicity in C57BL/6J mouse assessed as change in platelet distribution width at 200 mg/kg twice daily for 60 days relative to control; format: organism-based; conditions: in vivo, 1440 h, time 60 day
[30] = Inhibition of thrombin-stimulated human platelet aggregation by measuring aggregation at 0.10 mM measured after 3 hrs by scanning electron microscopy (Rvb= 87.2 +/- 4.0%); format: functional; parameters: scale not given: the % may be the effect or the level left; conditions: dose 0.1 mM
Mus musculus [31] = experiment: Antithrombotic activity in collagen-epinephrine induced pulmonary thromboembolism mouse model assessed as protection rate at 200 mg/kg, ig twice a day for 7 days followed by administered collagen-epinephrine relative to control; format: functional; conditions: time 7 day
[32] = Suppression of glycoprotein IIb/IIIa activation in thrombin-stimulated human platelets by measuring activated GPIIb/IIIa at 0.05 mM measured after 3 hrs by PAC-1-FITC dye based flow cytometry (reference value: 90.1%); format: functional; conditions: Platelet
Platelet [33] = experiment: Inhibition of thrombin-stimulated human platelet aggregation at 1 mM measured after 3 hrs by scanning electron microscopy (Rvb= 87.2 +/- 4.0%); format: functional, tissue-based
Platelet [34] = experiment: Antiplatelet activity in human platelet on collagen-coated surface assessed as shear rate pre-incubated at 0.5 mM measured after 3 hrs by fluorescent microscopy (reference value: 100 =/- 7%); format: functional
[35] = Suppression of P-selectin expression in thrombin-stimulated human platelets by measuring CD62P positive platelets at 0.10 mM after 3 hrs by flow cytometry analysis (reference value: 78.2%); format: functional; conditions: Platelet, at 0.1 mM

SMILES: CN(C)C(=N)NC(=N)NS(=O)(=O)C(F)(F)F
- level, % of control at 100 µM [1]: 44.5%
- inhibition in vivo at 200 mg/kg [2]: 71.5%
- Activity [3]: Non-Toxic
- Activity [4]: Non-Toxic
- Activity (Platelet [5]): Non-Toxic
- level, % of control at 10 µM [6]: 84.2%
- Activity [7]: 21%
- level, % of control at 500 µM [8]: 37.5%
- Time (Mus musculus [9]): 15.1 min
- Activity [10]: 21%
- level, % of control at 1000 µM [11]: 37.2%
- Activity [12]: 75.9%
- Activity (Platelet [13]): Non-Toxic
- level, % of control at 500 µM [14]: 45.2%
- Activity [15]: Non-Toxic
- Activity [16]: Non-Toxic
- Activity (Mus musculus [17]): Active
- CLz/F [18]: 16.6 mL/min/kg
- Activity (Mus musculus [19]): Active
- Activity [20]: Non-Toxic
- half-life [21]: 4.94 h
- Activity (Mus musculus [22]): 0.4 mg
- AUC(0-inf) [23]: 201 µg·h/mL
- Activity (Mus musculus [24]): 3.5 mm
- Activity [25]: Non-Toxic
- Activity [26]: Non-Toxic
- Activity [27]: 62.2%
- Activity [28]: Non-Toxic
- Activity [29]: Non-Toxic
- Activity [30]: 44.2%
- Activity (Mus musculus [31]): 70%
- level, % of control at 50 µM [32]: 74.3%
- inhibition (Platelet [33]): inactive
- Activity (Platelet [34]): 37%
- level, % of control at 100 µM [35]: 54.7%
